Values quoted from earlier work in US10813877B2, “Oral care products and methods” (MGE HOLDINGS LLC, priority 2016, dated 2020).

Test system: cells
Conditions: ex vivo

[H]/N=C(\N/C(=N/[H])NCCCCCCNC(=N)NC(=N)Nc1ccc(Cl)cc1)Nc1ccc(Cl)cc1 [chlorhexidine]
cytotoxic effect on cells: cytotoxic effect
